The subject of series [1] is TNF-α. Briefly: TNF-α expression in pancreas of HFFD diabetic rats (qRT-PCR). The class given is in vivo, Wistar Rats. The note with it: Diabetic 1.73 ± 0.34. The source says: (§1) Wistar Rats (150 g) were given High fat and fructose diet (HFFD) to induced type 2 diabetes (T2D). HFFD induces the development of diabetes associated with long term metabolic disorders including Fasting hyperglycemia, pre- and post-prandial hyperinsulinemia, Insulin resistance, Glucose intolerance and Dyslipidemia. Animals in HFFD show complications associated with T2D such as hepatic steatosis complicated by fibrosis, inflammation, hyperleptinemia and endothelial dysfunction. Rats were co administered with AC3 (100 mg/kg), BAP (200 μg/kg) BAP+AC3 (200 μg+100 mg/kg) BAP+AC3 (50 μg+100 mg/kg) and Metformin as positive control at 100 mg/kg along with HFFD for 90 days (Table 4). The organs were collected at the end of the experiment to evaluate the effect of the supplements on RAGE expression, oxidative stress and inflammation. […] from pancreas sample using the trizol method. […] First-strand cDNA was prepared from RNA samples using oligo dT primers and Superscript III reverse transcriptase (cDNA synthesis kit, Invitrogen™) Quantitative real-time PCR (qRT-PCR) was performed with SYBR Green I fluorescent dye using Light cycler 96 according to the manufacturer's instructions (Light Cycler® FastStart DNA Master SYBR Green I, Roche). […] The gene expression of the target gene in each test sample was determined by relative quantification using the comparative Ct (ΔΔCt) method.

Series [2] concerns inflammatory marker (TNF-α, IL6, IL-1β). Briefly: Inflammatory cytokine expression in pancreas of HFFD diabetic rats, overall statements. The format is in vivo, Wistar Rats. The conditions noted are these: BAP 200 ug/kg; AC3 100 mg/kg; combinations; p<0.05.
Excerpt: as §1

Series [3] concerns IL-1β. Briefly: IL-1β expression in pancreas of HFFD diabetic rats (qRT-PCR). The conditions noted are these: Diabetic 1.66 ± 0.04. The format is in vivo, Wistar Rats.
Excerpt: as §1

Series [4] deals with IL-6. Briefly: IL-6 expression in pancreas of HFFD diabetic rats (qRT-PCR). The format is in vivo, Wistar Rats. The note with it: Diabetic 1.60 ± 0.09.
Excerpt: as §1
(Real-time PCR tracks product formation cycle by cycle.)

Series [5] deals with formation of AGE (bovine serum albumin + D-Ribose). Briefly: In vitro anti-glycation assay (BSA + D-Ribose, fluorescence Ex/Em 390/460 nm, 24 h). The class given is biochemical. The source says:
Glycation is the non-enzymatic glycosylation reaction involving amino groups of proteins, lipids, or nucleic acids with sugar aldehyde or keto groups resulting in the formation of advanced glycosylation end-products (AGE) (Yamagishi et al. Pathologic role of dietary advanced glycation end products in cardiometabolic disorders, and therapeutic intervention, Nutrition, 32(2), 157-65 (2016)). The reactive carbonyls of sugars combine with amino groups of a protein, lipid or nucleic acid generating Schiff bases, which rearrange to Amadori products. In a series of slow reactions, the Amadori reactions, Schiff base and Maillard reactions, ultimately form AGE. Although glycation is slow in vivo, the glycation products have long-lasting effects. The effect of test substances on preventing the formation of AGE was evaluated in vitro
Anti-glycation activity was evaluated as described earlier (Sero et al. Tuning a 96-Well Microtiter Plate Fluorescence-Based Assay to Identify AGE Inhibitors in Crude Plant Extracts) Briefly, 10 μl of various sample concentrations were added to 40 μl of 25 mg/ml bovine serum albumin and 50 μl of 150 mg/ml D-Ribose in a 96 well black microplate. D-Ribose with buffer served as control. The plate containing the mixture was incubated for 24 h at 37° C. The advanced glycation product was detected by measuring the fluorescence intensity at Ex/Em of 390/460 nm by using BMG FLUOstar Optima Microplate reader.

Series [6] deals with reactive oxygen species (ROS). Briefly: Oxidative stress in tissue homogenates (DCFDA fluorescence) of HFFD diabetic rats. The note with it: for Relative Fluorescence Intensity, Average: Normal 6.5, Diabetic 23.8. The format is in vivo, Wistar Rats. The source says: Wistar Rats (150 g) were given High fat and fructose diet (HFFD) to induced type 2 diabetes (T2D). HFFD induces the development of diabetes associated with long term metabolic disorders including Fasting hyperglycemia, pre- and post-prandial hyperinsulinemia, Insulin resistance, Glucose intolerance and Dyslipidemia. Animals in HFFD show complications associated with T2D such as hepatic steatosis complicated by fibrosis, inflammation, hyperleptinemia and endothelial dysfunction.
Rats were co administered with AC3 (100 mg/kg), BAP (200 μg/kg) BAP+AC3 (200 μg+100 mg/kg) BAP+AC3 (50 μg+100 mg/kg) and Metformin as positive control at 100 mg/kg along with HFFD for 90 days (Table 4). The organs were collected at the end of the experiment to evaluate the effect of the supplements on RAGE expression, oxidative stress and inflammation.
The level of oxidative stress in tissue was estimated by using 20,70-dichlorofluorescin diacetate (DCFDA), a fluorogenic dye that measures hydroxyl, peroxyl, and other reactive oxygen species (ROS) activity. Briefly, an aliquot of the tissue homogenates (10 μL) were mixed with 150 μL ethanol solution of DCFDA to the final concentration of 10 mM. After incubation for 30 min at room temperature in dark, the fluorescence was measured with the excitation and emission wavelengths of 488 and 520 nm. Higher the fluorescence, higher is the oxidative stress. oxidative stress is decreased in the subject, and brought about by curcuminoids. BAP, or their combination.

Series [7] has as its system RAGE. Briefly: RAGE expression in pancreas of HFFD-induced diabetic rats (qRT-PCR). The format is in vivo, Wistar Rats.
Excerpt: as §1

The target in series [8] is DPP4 (Dipeptidyl-peptidase 4) (Homo sapiens, UniProt P27487). As to the kind of experiment: Inhibition of DPP4 enzyme. The format is biochemical. Also on record: Anti-DPP4 activity: unit of the concentration uncertain.
For series [9], the system named is glycation. As to the kind of experiment: Anti-glycation activity of curcuminoids at 24 and 72 hrs (320/405). The format is biochemical.

Chain of DPP4 (Dipeptidyl-peptidase 4) (P27487 whole entry, species assumed): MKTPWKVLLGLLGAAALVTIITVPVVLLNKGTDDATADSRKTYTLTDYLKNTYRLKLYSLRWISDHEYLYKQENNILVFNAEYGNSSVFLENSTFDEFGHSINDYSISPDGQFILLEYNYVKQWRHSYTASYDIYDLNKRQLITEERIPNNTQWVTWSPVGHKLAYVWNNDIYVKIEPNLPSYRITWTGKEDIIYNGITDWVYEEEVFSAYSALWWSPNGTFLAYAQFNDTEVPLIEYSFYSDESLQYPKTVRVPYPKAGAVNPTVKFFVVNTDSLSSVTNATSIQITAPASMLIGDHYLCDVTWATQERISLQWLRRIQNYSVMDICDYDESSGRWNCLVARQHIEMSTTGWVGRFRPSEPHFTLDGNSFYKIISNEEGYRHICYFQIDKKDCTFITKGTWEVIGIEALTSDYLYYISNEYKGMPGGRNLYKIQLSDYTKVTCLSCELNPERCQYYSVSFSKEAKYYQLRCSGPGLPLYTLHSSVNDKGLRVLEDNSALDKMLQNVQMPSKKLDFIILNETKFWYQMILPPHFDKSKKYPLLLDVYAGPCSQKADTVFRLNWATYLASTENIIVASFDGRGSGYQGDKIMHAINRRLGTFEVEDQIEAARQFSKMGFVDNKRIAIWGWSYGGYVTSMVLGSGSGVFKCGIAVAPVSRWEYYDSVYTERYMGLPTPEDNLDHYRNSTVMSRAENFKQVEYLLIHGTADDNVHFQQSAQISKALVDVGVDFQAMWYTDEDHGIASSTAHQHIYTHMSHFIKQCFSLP

With `CCCCCCCCCCCCCCCC(=O)O[C@H]1CC[C@]2(C)[C@H]3CC=C4[C@@H]5CC(C)(C)CC[C@]5(C)CC[C@@]4(C)[C@]3(C)CC[C@H]2C1(C)C` [BAP, β-amyrin palmitate], the “Expression level of TNF-α (Normal = 1)” value in series [1] (BAP 200 μg/kg) stood at 2.01 ± 0.31. Further, in series [2], the “Reduction of inflammatory cytokine expression in pancreas (in words)” value is reported as “not effective”. Also, in series [3] (BAP 200 μg/kg), the “Expression level of IL-1β (Normal = 1)” value was determined as 1.62 ± 0.11. In addition, the “Expression level of IL-6 (Normal = 1)” value in series [4] (BAP 200 μg/kg) is listed as 2.09 ± 0.08. Also, the “Percentage Inhibition” value in series [5] (BAP 1 μg/mL) stood at 0%; in series [5] (BAP 2 μg/mL), 11.92%; in series [5] (BAP 4 μg/mL) it was 9.67%. Further, the “Inhibition of AGE formation (in words)” value in series [5] (in vitro, BSA + ribose) is on record as “poor inhibitor of AGE formation”. For the same compound, the “Relative Fluorescence Intensity, Average” value in series [6] (BAP 200 μg/kg) stood at 11.5. Moreover, in series [6] (HFFD rats, 90 days), the “Decrease of oxidative stress from the diabetic control” value is given as 2 fold. Further, the “Effect on pancreatic RAGE expression” value in series [7] (BAP 200 μg/kg, 90 days with HFFD, vs diabetic rats) was “no effect”.
`O=C(/C=C/c1ccc(O)cc1)CC(=O)/C=C/c1ccc(O)cc1` [BDMC, Bisdemethoxycurcumin]: the Anti-DPP4 activity is on record as 43.58 in series [8] (Conc 12.5 (unit uncertain)), 56.07 in [8] (Conc 25 (unit uncertain)) and 58.55 in [8] (Conc 50 (unit uncertain)).
`COc1cc(/C=C/C(=O)CC(=O)/C=C/c2ccc(O)c(OC)c2)ccc1O` [Curcumin, curcumin]: the Anti-DPP4 activity turned out to be 14.11 in [8] (Conc 12.5 (unit uncertain)), 48.88 in series [8] (Conc 25 (unit uncertain)) and 70.29 in [8] (Conc 50 (unit uncertain)). In addition, the “Effectiveness against DPP4 (comparison in words)” value in series [8] (Table 11) was “as effective as AC3”. The Anti-Glycation activity was 29.67 in series [9] (24 hrs (320/405), Conc 0.3125 mg/mL); 35.90 in [9] (24 hrs (320/405), Conc 0.625 mg/mL); 44.42 in [9] (72 hrs (320/405), Conc 0.625 mg/mL).
For `COc1cc(/C=C/C(O)=C/C(=O)/C=C/c2ccc(O)cc2)ccc1O` [DMC, demethoxycurcumin], the values for the Anti-DPP4 activity in series [8] (Conc 12.5 (unit uncertain)), in [8] (Conc 25 (unit uncertain)) and in series [8] (Conc 50 (unit uncertain)) were 23.56, 39.86 and 62.60, respectively.
Consider `CN(C)C(=N)N=C(N)N` [Metformin], for which, in series [1] (Metformin 100 mg/kg), the “Expression level of TNF-α (Normal = 1)” value is listed as 0.91 ± 0.22. Besides, the “Expression level of IL-1β (Normal = 1)” value in [3] (Metformin 100 mg/kg) stood at 0.89 ± 0.05. Further, the “Expression level of IL-6 (Normal = 1)” value in series [4] (Metformin 100 mg/kg) is recorded as 1.04 ± 0.12. Further, in series [6] (Metformin 100 mg/kg), the “Relative Fluorescence Intensity, Average” value amounted to 28.94. The “Reduction of RAGE expression” value in series [7] (metformin 100 mg/kg, pancreas) is recorded as 6.9%.
